Converted amounts (≈) assume the structure as drawn.
Assays:
[1] = system: Mycobacterium tuberculosis; experiment: Antimycobacterial activity against Mycobacterium tuberculosis H37Ra after 7 days by microplate Alamar blue assay; format: functional; settings: 168 h
[2] = system: Mycobacterium tuberculosis; experiment: Antimycobacterial activity against Mycobacterium tuberculosis H37Rv after 7 days by microplate Alamar blue assay; format: functional; settings: 168 h
[3] = system: Mycobacterium tuberculosis; experiment: Antimycobacterial activity against p-Aminosalicylic acid-resistant Mycobacterium tuberculosis H37Rv ATCC 35821 after 7 days by microplate Alamar blue assay; format: functional; settings: H37Rv ATCC 35821, 168 h
MRC5 = experiment: Cytotoxicity against human MRC5 cells by MTT assay; format: cell-based

SMILES	MIC [1] [µg/mL]	further results
COc1cc(O)cc2c1C(=O)c1c(O)cc(C)cc1C2=O [QUESTIN]	50 (≈ 176 µM)	–
COC(=O)C1=C(C)Oc2c(cc(C(C)(C)C)cc2C(C)(C)C)[C@@H]1[C@H](C(C)=O)C(=O)OC	> 100	–
CN1C(=O)C(C2C3=C(CC(C)(C)CC3=O)Oc3ccc(Br)cc32)C(=O)N(C)C1=O (stereo unspecified)	> 100	–
CC[C@@H](C)C[C@]1(C)C=C/C(=C2/C(=O)O[C@H](CC(=O)O)C2=O)O1	100 (≈ 324 µM)	–
O=C1CCCC2=C1C(c1c[nH]c3ccccc13)c1cc(Cl)ccc1O2 (stereo unspecified)	50 (≈ 143 µM)	–
COC(=O)[C@@]12Oc3ccc(-c4ccc5c(c4O)C(O)C4=C(O)C[C@H](C)[C@@H](O)[C@]4(C(=O)OC)O5)c(O)c3C(=O)C1=C(O)C[C@H](C)[C@H]2O (stereo partly specified) [SECALONIC ACID D]	> 100	–
O=[N+]([O-])c1cccc2ncccc12	100 (≈ 574 µM)	–
CN1c2ccccc2C2CC1OC1=C2C(=O)CCC1 (stereo unspecified)	> 100	–
COc1ccc2c(c1)C(C1C(=O)N(C)C(=O)N(C)C1=O)C1=C(CC(C)(C)CC1=O)O2 (stereo unspecified)	> 100	–
CC1(C)CC(=O)C2=C(C1)Oc1c(cc(C(C)(C)C)cc1C(C)(C)C)C2c1c[nH]c2ccccc12 (stereo unspecified)	> 100	–
CN1c2cccc([N+](=O)[O-])c2C2CC1OC1=C2C(=O)CC(C)(C)C1 (stereo unspecified)	> 100	–
COc1ccc(Br)c2c1OC1=C(C(=O)CC(C)(C)C1)C2c1c[nH]c2ccccc12 (stereo unspecified)	> 100	–
CC(=O)c1cc2ccccc2[nH]c1=O	> 100	–
CC1(C)CC(=O)C2=C(C1)Oc1ccccc1C2c1c[nH]c2ccccc12 (stereo unspecified)	50 (≈ 146 µM)	–
COC(=O)C1=C(C)Oc2ccc(OC)cc2[C@@H]1[C@H](C(C)=O)C(=O)OC	> 100	–
CC(=O)c1cc2cc(Cl)ccc2oc1=O	> 100	–
CC1(C)CC(=O)C2=C(C1)Oc1ccc3ccccc3c1C2c1c[nH]c2ccccc12 (stereo unspecified)	25 (≈ 63.5 µM)	–
COC(=O)[C@]1(Cc2ccc3c(c2)C[C@H](O)C(C)(C)O3)OC(=O)C(O)=C1c1ccc(O)cc1 [BUTYROLACTONE V]	> 100	–
C[C@@H]1CCN2C[C@@]34C[C@@]5(CC(=O)N(C)C5=O)C(C)(C)[C@H]3C[C@@]12C(=O)N4C	25 (≈ 69.5 µM)	–
CC1(C)CC(=O)C2=C(C1)Oc1c(O)cccc1C2c1c[nH]c2ccccc12 (stereo unspecified)	100 (≈ 278 µM)	–
COC(=O)CCC[N+](=O)[O-]	12.5 (≈ 85 µM)	MIC [2]: 25 µg/mL (≈ 170 µM)
CC[C@H](C)[C@@H](O)[C@@H](C)C(=O)O[C@H]1CC(CC(=O)[C@H]2[C@H](C)CCC[C@@H]2O)=C(C)C(=O)[C@@]1(C)O	> 100	–

SMILES	MIC [1] [µg/mL]	further results
CC(=O)c1cc2cccc(O)c2oc1=O	> 100	–
O=C1CCCC2=C1C(c1c[nH]c3ccccc13)c1c(ccc3ccccc13)O2 (stereo unspecified)	> 100	–
CN1C(=O)C(C2C3=C(CC(C)(C)CC3=O)Oc3ccccc32)C(=O)N(C)C1=O (stereo unspecified)	> 100	–
COc1ccc2c(c1)C(n1nnc3ccccc31)C1=C(CCCC1=O)O2 (stereo unspecified)	> 100	–
O=C(OC[C@@H](O)[C@@H](O)COC(=O)/C(Cc1ccc(O)cc1)=N\O)/C(Cc1ccc(O)cc1)=N\O [ASPERGILLUSOL A]	> 100	–
O=c1cc(CO)occ1O [KOJIC ACID]	> 100	–
COC(=O)C1=C(C)Oc2ccc(Br)cc2[C@@H]1[C@H](C(C)=O)C(=O)OC	> 100	–
C/C(=C\C=C\[C@H](O)[C@@H](C)O)[C@H](O)[C@H](C)C(=O)O[C@H]1C[C@H](CO)C[C@@H]2C=C[C@H](C)[C@](C)(C(=O)C(O)CO)[C@@H]12 (stereo partly specified)	> 100	–
CC(=O)c1cc2cc(Br)ccc2oc1=O	> 100	–
COc1ccc2c(c1)OC1=C(C(=O)CC(C)(C)C1)C2c1c[nH]c2ccccc12 (stereo unspecified)	100 (≈ 268 µM)	–
COC(=O)c1cc2c(ccc3ccccc32)oc1=O	50 (≈ 197 µM)	–
C/C=C/C1=CC=C/C(=C2\C(=O)CNC2=O)O1 [VERMELHOTIN]	3.1 (≈ 14.3 µM)	MIC [3]: 3.1 µg/mL (≈ 14.3 µM); MIC [2]: 6.2 µg/mL (≈ 28.5 µM); IC50 (MRC5): 6.97 µg/mL (≈ 32.1 µM)
O=C1CCCC2=C1C(c1c[nH]c3ccccc13)c1cc(Br)ccc1O2 (stereo unspecified)	50 (≈ 127 µM)	–
C/C=C(\C)c1c(Br)c(O)c(C)c2c1Oc1cc(O)c(Br)c(C)c1C(=O)O2	50 (≈ 103 µM)	–
CN1C(=O)C(C2C3=C(CCCC3=O)Oc3ccc(Br)cc32)C(=O)N(C)C1=O (stereo unspecified)	> 100	–
COCCC(=O)O	> 100	MIC [2]: 100 µg/mL (≈ 961 µM)
COC(=O)C1=C(C)Oc2c(O)cccc2[C@@H]1[C@H](C(C)=O)C(=O)OC	> 100	–
COC(=O)C1=C(C)Oc2ccc(Cl)cc2[C@@H]1[C@H](C(C)=O)C(=O)OC	> 100	–
CN1Cc2c(cn3c2ccc2ccccc23)-c2ccccc21	0.7 (≈ 2.46 µM)	MIC [3]: 1.5 µg/mL (≈ 5.27 µM); MIC [2]: 6.2 µg/mL (≈ 21.8 µM); IC50 (MRC5): 23.5 µg/mL (≈ 82.6 µM)
CC[C@H](C)[C@@H](O)[C@@H](C)C(=O)O[C@@]1(C)C(=O)c2c(cc(O)c3c2CCC[C@H]3C)C(C)(O)C1=O (stereo partly specified)	> 100	–
C/C(=C\C=C\[C@H](O)[C@@H](C)O)[C@H](O)[C@H](C)C(=O)O[C@H]1C[C@H](C)C[C@@H]2C=C[C@H](C)[C@](C)(C(=O)C(O)CO)[C@@H]12 (stereo partly specified)	> 100	–

Source: ChEMBL document CHEMBL3352707, “Antimycobacterial activity of natural products and synthetic agents: pyrrolodiquinolines and vermelhotin as anti-tubercular leads against clinical multidrug resistant isolates of Mycobacterium tuberculosis” (Eur J Med Chem, 2015)
